Values of other authors as cited in patent publication US6682747B1 (Boehringer Ingelheim Pharma KG, priority 1998, dated 2004).

Details: buffered aqueous systems, pH 2-4

## Cc1cnc(NC(=O)C2=C(O)c3ccccc3S(=O)(=O)N2C)s1 [meloxicam]
  solubility: less than 0.5 μg/ml
